SMILES strings stand for the structures. Structures can show the parent of a compound that is named as a salt.

The target in series [1] is dopamine D2 receptor (Homo sapiens, UniProt P14416). The series is described as follows: Binding affinity for dopamine D2 receptor, 3H-raclopride as ligand (Seeman 1993).
Description: As will be appreciated by those skilled in the art, Ki values depend on the method of measurement, pH, radiolabeling technique, tissue type, temperature and type of wash used.
Series [2] deals with T1, dopamine D2 receptors (Rattus norvegicus, UniProt P61169).
T1 construct: Striata and cerebella were rapidly dissected, processed and analyzed as described by Kapur et al. (2000b); from tissue; host or cells: rat brain in vivo (striatum; cerebellum also dissected)
T1 sequence (P61169 whole entry): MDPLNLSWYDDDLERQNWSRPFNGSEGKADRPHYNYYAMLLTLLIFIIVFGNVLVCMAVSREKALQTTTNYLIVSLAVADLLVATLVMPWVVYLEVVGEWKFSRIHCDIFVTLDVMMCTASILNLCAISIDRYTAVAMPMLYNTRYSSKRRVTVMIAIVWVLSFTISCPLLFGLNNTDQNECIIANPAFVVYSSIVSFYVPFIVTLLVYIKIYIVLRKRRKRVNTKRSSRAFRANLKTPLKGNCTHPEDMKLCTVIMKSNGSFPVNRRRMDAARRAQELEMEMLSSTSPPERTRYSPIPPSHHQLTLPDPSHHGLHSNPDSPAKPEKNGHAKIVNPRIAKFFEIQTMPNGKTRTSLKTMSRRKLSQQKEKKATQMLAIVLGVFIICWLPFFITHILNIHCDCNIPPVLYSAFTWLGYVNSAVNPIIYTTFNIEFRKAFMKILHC
The series is described as follows: In-vivo D2 receptor occupancy with 3H-raclopride. As to conditions: rats; for ED50: rat, sc in acidified saline; for D2 occupancy: dose 1-40 mg/kg/sc in acidified saline, sacrifice 1 hour after drug. The method, then: (§1) To document the fact that the compounds cross the blood brain barrier, occupancy at the dopamine D2 receptors using in-vivo occupancy measures was examined in rats. The test compound was injected subcutaneously followed 30 minutes later by an intravenous injection of ^3H-raclopride. The animals were sacrificed 1 hour after drug administration. In animals combining occupancy and catalepsy, rats were tested for catalepsy 10 minutes before sacrifice. Animals were sacrificed by decapitation. Striata and cerebella were rapidly dissected, processed and analyzed as described by Kapur et al. (2000b) Compounds which crossed the blood brain barrier and gave predictable dose-response relationships were then tested to see if they gave catalepsy. Catalepsy is the time-honoured animal model to predict the propensity of compounds to give rise to extrapyramidal side-effects in humans. Catalepsy was measured using a grid-test by a rater blind to the treatment-assignment. The time that animals remained immobile was used as an index of catalepsy by transforming raw-scores into catalepsy scores, with a score of 1 as questionable catalepsy and scores of 2-5 reflecting severity of catalepsy (Ahlenius S et al. 1986).

Series [3] deals with FOS protein. The series is described as follows: FOS immunohistochemistry. It counts as in vivo. As to conditions: rats, two hours after injection; for FOS protein induction in the nucleus accumbens: shell of nucleus accumbens. How it is done:
In particular, all antipsychotics induce FOS in the nucleus accumbens regions while those likely to give rise to motor side-effects also induce FOS in the dorsolateral striatum (Robertson et al. 1994). For examining the distribution of FOS protein by the test compound, the test compound was injected into rats and two hours later, the animals were deeply anaesthetized with sodium phenobarbitol (100 mg/kg i.p.) and perfused transcardially, the brains removed and post-fixed. Immunostaining was performed on free-floating forty-micron sections with a rabbit-raised polyclonal primary anti-FOS antiserum (diluted 1:250 and incubated 48 hours at 4° C.) (4-17 aminoacids of human Fos; Oncogene Research Products, Cambridge, Mass., USA). Exposure to a biotinylated goat anti-rabbit secondary antibody (1:600, Vector Laboratories, Burlingame, Calif., USA) followed by incubation with horseradish peroxidase avidin-biotin complex (Vector Laboratories, Vector Laboratories, Burlingame, Calif., USA) was used to visualize the FOS staining. Fos-immunoreactive nuclei were counted within 400×400 μm grid at a magnification of 100× in the shell of nucleus accumbens and dorsolateral striatum.

Series [4] has as its system rats. Description: Conditioned avoidance response (CAR), two-way active avoidance shuttlebox. It counts as in vivo. How it is done: Therefore the new compounds were tested for activity in this model. For conditioned avoidance-response, rats were trained and tested in a computer assisted two-way active avoidance (shuttlebox), with an 80 dB white-noise as a conditioned stimulus, followed ten seconds later by a 0.6 mA shock as the unconditioned stimulus. Details of the procedure have been described elsewhere (Wadenberg M L et al. 2000).

Series [5] has as its system rats. The series is described as follows: Catalepsy grid-test (motor side-effects). Type of series: in vivo. Particulars: for motor-side-effects (catalepsy): sc, doses 1-40 mg/kg. The method, then: as §1

Sequence of dopamine D2 receptor (P14416 whole entry, species assumed): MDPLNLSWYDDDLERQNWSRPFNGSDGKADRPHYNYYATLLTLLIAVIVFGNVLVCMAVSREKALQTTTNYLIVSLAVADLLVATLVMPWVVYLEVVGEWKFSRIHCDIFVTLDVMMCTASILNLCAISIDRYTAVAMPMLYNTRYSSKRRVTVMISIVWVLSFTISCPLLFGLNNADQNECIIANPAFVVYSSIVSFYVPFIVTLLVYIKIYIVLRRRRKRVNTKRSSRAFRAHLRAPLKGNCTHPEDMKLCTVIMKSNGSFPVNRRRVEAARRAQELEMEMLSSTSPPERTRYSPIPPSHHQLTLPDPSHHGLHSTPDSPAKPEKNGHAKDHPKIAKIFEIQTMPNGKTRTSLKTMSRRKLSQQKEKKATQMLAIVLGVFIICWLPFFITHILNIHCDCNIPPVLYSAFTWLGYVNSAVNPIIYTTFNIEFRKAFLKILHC

As to `CC(C)N1CCN(C2=Nc3cc(Cl)ccc3Sc3ccccc32)CC1` [Example 15, 8-Chloro-11-(4-isopropylpiperazin-1-yl)-dibenzo[b,f][1,4]thiazepine.HCl], the Ki in series [1] was 58 nM.
For `CC(C)N1CCN(C2=Nc3cc(Cl)ccc3Oc3ccccc32)CC1` [Example 9, 8-Chloro-11-(4-isopropylpiperazin-1-yl)-dibenzo[b,f][1,4]oxazepine], the melting point is 55 to 56 °C. The compound also had a Ki in series [1] of 150 nM.
In turn, `CCN1CCN(C2=Nc3cc(Cl)ccc3Oc3ccccc32)CC1` [Example 6, 8-Chloro-11-(4-ethylpiperazin-1-yl)-dibenzo[b,F][1,4]oxazepine] yielded a Ki in series [1] of 42 nM. In series [2], the ED50 is about 5 mg/kg and the D2 occupancy is 5-81%. Besides, in series [3], the “FOS protein induction in the dorsolateral striatum” value is on record as “no induction” and the “FOS protein induction in the nucleus accumbens” value is listed as “robust induction”. Besides, in series [4] (Rattus norvegicus, 10 mg/kg/sc), the inhibition at 10 mg/kg is over 50%. For the same compound, in series [5], the “motor-side-effects (catalepsy)” value is reported as “No animals showed any evidence of motor-side-effects”.
Consider `CCCCN1CCN(C2=Nc3cc(Cl)ccc3Oc3ccccc32)CC1` [Example 10, 8-Chloro-11-(4-butylpiperazin-1-yl)-dibenzo[b,f][1,4]oxazepine], for which the melting point was 97 to 98 °C. The compound also gave a Ki in series [1] of 28 nM.
As for `CCN1CCN(C2=Nc3cc(Cl)ccc3Sc3ccccc32)CC1` [Example 12, 8-Chloro-11-(4-ethylpiperazin-1-yl)-dibenzo[b,f][1,4]thiazepine], the melting point lay within 100 to 101 °C. For the same compound, in series [1], the affinity corresponds to a Ki of 63 nM.
Consider `CCCCN1CCN(C2=Nc3cc(C(F)(F)F)ccc3Oc3ccccc32)CC1` (as salt: HCl) [Example 5, 8-Trifluoromethyl-11-(4-butylpiperazin-1-yl)-dibenzo[b,f][1,4]oxazepine.HCl], for which the melting point was 240 °C (dec.).
`O=C(CCCN1CCC(O)(c2ccc(Cl)cc2)CC1)c1ccc(F)cc1` [haloperidol, reference compound]: in series [3], the “FOS protein induction in the dorsolateral striatum” value is recorded as “resulted in FOS in the dorsolateral striatum” and the “FOS protein induction in the nucleus accumbens” value is “robust FOS induction”. In addition, the inhibition of avoidance result in series [4] (>0.05 mg/kg/sc, without catalepsy or escape deficits) is “robust inhibition of avoidance”.
Take `CC(C)N1CCN(C2=Nc3cc(C(F)(F)F)ccc3Oc3ccccc32)CC1` (as salt: HCl) [Example 4, 8-Trifluoromethyl-11-(4-isopropylpiperazin-1-yl)-dibenzo[b,f][1,4]oxazepine.HCl]: the melting point was 270 °C (dec.).
In turn, `OCCN1CCN(C2=Nc3cc(C(F)(F)F)ccc3Oc3ccccc32)CC1` [Example 2, 8-Trifluoromethyl-11-(4-(2′-hydroxyethyl)piperazin-1-yl)-dibenzo[b,f][1,4]oxazepine] came in with a melting point of 110 to 111 °C. For the same compound, the Ki in series [1] was found to be 414 nM.
Consider `CCCCN1CCN(C2=Nc3cc(C(F)(F)F)ccc3Oc3ccccc32)CC1` [Example 5, 8-Trifluoromethyl-11-(4-butylpiperazin-1-yl)-dibenzo[b,f][1,4]oxazepine.HCl], for which, in series [1], the Ki was determined as 250 nM.
The compound `OCCN1CCN(C2=Nc3cc(Cl)ccc3Oc3ccccc32)CC1` [Example 7, 8-Chloro-11-(4-(2′-hydroxyethyl)piperazin-1-yl)-dibenzo[b,f][1,4]oxazepine] gave a melting point of 149 to 150 °C. The compound also came in with a Ki in series [1] of 108 nM. Moreover, in series [2], the ED50 was 10 mg/kg and the D2 occupancy was 22-75%. Also, the inhibition at 20 mg/kg in series [4] (Rattus norvegicus, 20 mg/kg/sc) was over 50%. Moreover, the “motor-side-effects (catalepsy)” value in series [5] was “No animals showed any evidence of motor-side-effects”.
With `CCCN1CCN(C2=Nc3cc(Cl)ccc3Oc3ccccc32)CC1` [Example 8, 8-Chloro-11-(4-propylpiperazin-1-yl)-dibenzo[b,f][1,4]oxazepine], the melting point was in the range of 90 to 91 °C. In series [1], this compound registered a Ki of 23 nM.
Take `CN1CCN(C2=Nc3cc(Cl)ccc3Nc3ccccc32)CC1` [Clozapine, reference compound]: in series [5] (doses up to 20 mg/kg/sc), the catalepsy entry is “did not give rise to catalepsy”.
Compound `OCCN1CCN(C2=Nc3cc(Cl)ccc3Sc3ccccc32)CC1` [Example 13, 8-Chloro-11-(4-(2′-hydroxyethyl)piperazin-1-yl)-dibenzo[b,f][1,4]thiazepine] showed a melting point of 110 to 111 °C. In series [1], this compound yielded a Ki of 88 nM.
For `CCN1CCN(C2=Nc3cc(C(F)(F)F)ccc3Oc3ccccc32)CC1` [Example 1, 8-Trifluoromethyl-11-(4-ethylpiperazin-1-yl)-dibenzo[b,f][1,4]oxazepine] the same measures were 76 to 77 °C and 258 nM.
`CC(C)N1CCN(C2=Nc3cc(C(F)(F)F)ccc3Oc3ccccc32)CC1` [Example 4, 8-Trifluoromethyl-11-(4-isopropylpiperazin-1-yl)-dibenzo[b,f][1,4]oxazepine.HCl] showed a Ki in series [1] of 215 nM.
